Test results as given in patent US20260097133A1, “EPIGENETIC EDITING TOOL FOR TARGETING HEPATITIS B VIRUS GENE” (priority 2023, published 2026).

How the values were obtained:
[1] = test system: type D HBV X protein (HBx) reporter cell line; test: sgRNA lentiviral library screening, HBx reporter cell line (NGS reads in GFP-negative cells); type: cell-based; settings: sgRNA in GFP-negative cell population, day 14 after transfection of EPIREG
Text: (§1) In this example, the type D HBV X protein (HBx), core antigen (HBcAg), and surface antigen (HBsAg) reporter cell lines were used for library screening. First, a sgRNA cell library of type D HBV gene was constructed using a reporter cell line according to the method described in example 1. The sgRNA library was packaged into lentivirus to obtain a sgRNA lentiviral library (carrying red fluorescence), the reporter cell line was infected with the lentiviral library, and the red fluorescence was sorted to obtain the sgRNA cell library. Each cell in this sorted cell library integrated a single sgRNA in the library while the cell itself carried a reporter sequence (carrying green fluorescence). The EPIREG tool described in example 2 (the amino acid sequence of the tool was SEQ ID NO: 1194) (carrying blue fluorescence) was transfected and delivered into a cell library carrying both sgRNA and reporter sequences. Red/green/blue fluorescent triple-positive cells were sorted using a flow cytometer and cultured long-term. The EPIREG transfected into the cells could work together with the sgRNA to silence GFP in the reporter. On the day 14 after transfection, the GFP-negative cell population in the cell library was sorted, the genomic DNA of the negative cell population was extracted for NGS sequencing. The sgRNAs with higher sequencing reads in the negative cell population were compared using the untreated cell library as a control reference, so as to obtain the candidate sgRNAs that could play an editing role corresponding to each reporter, respectively (the schematic diagram of this screening scheme is shown in FIG. 6, and the analysis method is referenced to the literature DOI: 10.1186/s13059-014-0554-4). The functionally validated sgRNAs for each reporter cell line are summarized in the following table (arranged by the starting position of the target sequence of each sgRNA).

[2] = test system: type D HBV core antigen (HBcAg) reporter cell line; test: sgRNA lentiviral library screening, HBcAg reporter cell line (NGS reads in GFP-negative cells); type: cell-based; settings: sgRNA in GFP-negative cell population, day 14 after transfection of EPIREG
Text: as §1

[3] = test system: type D HBV surface antigen (HBsAg) reporter cell line; test: sgRNA lentiviral library screening, HBsAg reporter cell line (NGS reads in GFP-negative cells); type: cell-based; settings: sgRNA in GFP-negative cell population, day 14 after transfection of EPIREG
Text: as §1

[4] = test system: type D hepatitis B virus (GenBank: U95551); test: Knockdown of HBV markers in HBV-infected primary hepatocytes (PHH), Example 2; type: cell-based; settings: sgRNA: single 4 h treatment, RG7834 stopped on day 13
Text: A primary hepatocyte (PHH) cell line infected with type D hepatitis B virus (GenBank: U95551) was used in this example. […] Therefore, these four sgRNAs were used to formulate the pharmaceutical composition provided in the present application and perform epigenetic editing in primary hepatocytes to validate their inhibitory effect on HBV gene expression.
Two days after primary hepatocytes were infected with HBV, lipid nanoparticles (LNPs) (LNP preparation reference: https://doi.org/10.1038/s41586-021-03534-y) were used to deliver a composition containing mRNA encoding EPIREG (SEQ ID NO: 1191) and each sgRNA (BSG29, BSG31, BSG34, BSG35) into primary hepatocytes (administration dose was 2.5 μg/ml, the mass ratio of EPIREG to sgRNA was 1:1). The culture supernatant was collected every two days after administration to detect the expression levels of HBV surface antigen (HBsAg) and core antigen (HBcAg) secreted by the cells. Cell samples were collected until 14 days after administration, DNA and RNA were extracted from the cells, and the levels of HBV mRNA and changes in the cccDNA of the HBV gene were detected. The two groups of positive controls used Myrcludex B (WuXi AppTec, C9023GE070-1/PE0723) and RG7834 (WuXi AppTec, ET25747-14-P1), respectively. Myrcludex B could inhibit HBV infection of hepatocytes, and RG7834 could inhibit the synthesis of viral proteins. RG7834 was stopped on the day 13 of the experiment to observe the rebound of viral antigen proteins. (Specific detection methods were performed according to the following kit instructions: HBsAg ELISA kit, Antu-CL 0310; HBeAg ELISA kit, Antu-CL 0312; RNeasy 96 Kit (12), QIAGEN #74182)

[5] = test system: HBx reporter cell line of type B HBV; test: sgRNA functional screening in HBx reporter cell line (293 FT, P2A-EGFP), type B HBV; type: cell-based, type B HBV (serotype adw); settings: type B HBV; different time points after transfection of EPIREG + sgRNA
Text: 293 FT was used to construct a reporter cell line for type B, type C and type D HBV surface antigen (HBsAg), core antigen (HBcAg), X protein (HBx) and polymerase (Pol), and the schematic diagram is shown in FIG. 1A. The genomic sequence containing the CpG island and regulatory elements before the protein transcription start site was retained, and the gene sequences of the self-cleaving peptide P2A and EGFP were fused after the 38th amino acid of the HBV surface antigen (HBsAg), the 129th amino acid of the core antigen (HBcAg), the 77th amino acid of the X protein (HBx), and the 177th amino acid of the polymerase (Pol), respectively. The reporter gene was integrated into the 293 FT genome using the PiggyBac transposon system, and a stably transfected cell line was constructed. The intensity of fluorescence was used to reflect the expression level of the protein, thereby quickly performing functional validation and preliminary screening of sgRNAs near the CpG island.
The screening scheme for sgRNA functional validation using the above-mentioned reporter cell line was designed as follows (FIG. 1B): after the reporter cells were plated, the composition EPIREG described in the present application (the domain of the composition was DNMT3A-hDNMT3L-xten80-ZIM3-xten80-dCas9, with an amino acid sequence as set forth in SEQ ID NO: 1194, and a nucleic acid sequence as set forth in SEQ ID NO: 1192 (CDS sequence) and 1193 (plasmid sequence)) containing different sgRNAs was delivered into the cells by transfection, and the two carried red fluorescence and blue fluorescence, respectively. Flow cytometry was used to sort red fluorescent and blue fluorescent double-positive cell populations, which were cultured for a long time. Flow cytometric analysis was performed every week to detect changes in the fluorescence intensity of the reporter cells, which could reflect changes in protein expression levels after epigenetic editing.

Compound | Log2 FC [1] | Log2 FC [2] | Log2 FC [3] | level of viral antigen protein (HBsAg, HBeAg/HBcAg) after end of treatment [4] | editing effects in the HBx reporter cell line [5]
973 (guide TCGGAACGGCAGACGGAGAA; listed as DNA, chemistry not fully specified) [compound 973] | 6.3619 | 3.9552 | 1.056 | – | –
792 (guide GGTCTGGAGCAAACATTATC; listed as DNA, chemistry not fully specified) [compound 792] | 5.6925 | 2.103 | 1.5074 | – | –
506 (guide CGTCCCGCGCAGGATCCAGT; listed as DNA, chemistry not fully specified) [compound 506] | 5.3827 | 3.3238 | 1.5863 | – | –
810 (guide GTAAAGAGAGGTGCGCCCCG; listed as DNA, chemistry not fully specified) [compound 810] | 5.1825 | 2.5258 | 1.7059 | – | –
834 (guide GTCGGAACGGCAGACGGAGA; listed as DNA, chemistry not fully specified) [compound 834] | 4.7704 | 2.7177 | 1.2666 | – | –
483 (guide CGCCCCGTGGTCGGTCGGAA; listed as DNA, chemistry not fully specified) [compound 483] | 6.4685 | 4.8386 | 2.4519 | – | –
601 (guide GACCAAGCCCCAGCCAGTGG; listed as DNA, chemistry not fully specified) [compound 601] | 7.1876 | 4.6508 | 1.3073 | – | –
658 (guide GCAAATATACATCGTATCCA; listed as DNA, chemistry not fully specified) [compound 658] | 4.7952 | 2.2171 | 1.8084 | – | –
211 (guide AGTCCCAAGCGACCCCGAGA; listed as DNA, chemistry not fully specified) [compound 211] | 4.6655 | 4.4175 | 1.5263 | – | –
825 (guide GTCCCAAGCGACCCCGAGAA; listed as DNA, chemistry not fully specified) [compound 825] | 5.2457 | 3.3064 | 1.0352 | – | –
COCCCOc1cc2c(cc1OC)-c1cc(=O)c(C(=O)O)cn1[C@H](C(C)C)C2 [RG7834, reference compound] | – | – | – | clear rebound (increasing) trend | –
774 (guide GGGGCGCACCTCTCTTTACG; listed as DNA, chemistry not fully specified) [compound 774] | 3.0494 | – | 1.1527 | – | –
150 (guide AGAGAGGTGCGCCCCGTGGT; listed as DNA, chemistry not fully specified) [compound 150] | 3.8671 | – | 1.453 | – | –
669 (guide GCAGATGAGAAGGCACAGAC; listed as DNA, chemistry not fully specified) [compound 669] | 4.1676 | 3.0945 | 1.1259 | – | –
BSG43: sgRNA tested in the HBx reporter cell line of type B HBV (guide TCCTCTACCGATCCATACTG; listed as DNA, chemistry not given here) | – | – | – | – | extremely high editing effects
491 (guide CGGAACGGCAGACGGAGAAG; listed as DNA, chemistry not fully specified) [compound 491] | 6.0674 | 4.5168 | 2.6046 | – | –
1028 (guide TGCCGTTCCGACCGACCACG; listed as DNA, chemistry not fully specified) [compound 1028] | – | 3.8548 | 0.8922 | – | –
985 (guide TCTGCCGTTCCGACCGACCA; listed as DNA, chemistry not fully specified) [compound 985] | 6.0276 | 3.1824 | 1.8695 | – | –
668 (guide GCAGAGGTGAAAAAGTTGCA; listed as DNA, chemistry not fully specified) [compound 668] | – | 1.9744 | 1.297 | – | –
88 (guide ACATCGTATCCATGGCTGCT; listed as DNA, chemistry not fully specified) [compound 88] | 3.4448 | 3.4446 | 1.2095 | – | –
641 (guide GATCGGCAGAGGAGCCGAAA; listed as DNA, chemistry not fully specified) [compound 641] | 7.351 | 5.5293 | 1.58 | – | –
998 (guide TCTTTGTACTAGGAGGCTGT; listed as DNA, chemistry not fully specified) [compound 998] | – | 4.2906 | 2.1989 | – | –
467 (guide CGACCCTTCTCGGGGTCGCT; listed as DNA, chemistry not fully specified) [compound 467] | 2.9245 | 2.0481 | 1.8988 | – | –
127 (guide ACTGGCTGGGGCTTGGTCAT; listed as DNA, chemistry not fully specified) [compound 127] | 7.231 | 2.0792 | 1.3983 | – | –
